The source of these data is US20250199015A1, “CYCLIN-DEPENDENT KINASE 2 INHIBITORS FOR MEDICAL TREATMENT” (INCYCLIX BIO, LLC, priority 2022, published 2025).

Data set [1] relates to CYP2B6 transcription. Description: CYP induction (transcription). The format is in vitro ADME. As to conditions: up to 3 μM, 24 hours.
The subject of data set [2] is pRb, p21, p27, phosphorylated CHK2 in MKN1 cells. Description: Western blot pRb and cell cycle proteins. It is filed as cell-based, human. To be noted: 30-1000 nM, 24 hours. On the procedure: The MKN1 human stomach carcinoma cell line was grown in RPMI-1640/1× Glutamax/10% heat inactivate fetal bovine serum and was plated at 300,000 cells/well in Corning 6 well tissue culture treated plates. Cells were incubated at 37° C. for 24 hours prior to addition of 2 replicates of 0.1% DMSO control and 1 replicate for each treatment. […] Cells were collected by washing each well twice with cold PBS, then scraping cells in the presence of 150 μL cold RIPA with protease and phosphatase inhibitors. Lysates were clarified by centrifugation at 14,000×g for 10 min at 4° C. and supernatants transferred to clean tubes. A BCA assay was performed to determine the protein concentration of each lysate. A total of 30 μg of protein was mixed with sample buffer and reducing agent before being run on a 4-12% SDS-PAGE. Protein was transferred to a nitrocellulose membrane and blocked with LI-COR blocking buffer for 1 hr. Membranes were incubated overnight in primary antibody at 4° C. Following 3 washes with TBS-T, membranes were incubated for 45 minutes in LI-COR secondary antibodies. Following 2 washes in TBS-T, and one TBS wash, membranes were scanned using a LI-COR OdysseyCLx. Image studio was used for image analysis.

Data set [3] has as its system pRb T821 in COV318 cells. Description: Western blot pRb. It is filed as cell-based, human. As to conditions: 30-1000 nM, 24 hours. The procedure:
Cells were plated at 300,000 cells/well in Corning 6 cm tissue culture treated plates. […] Cells were collected by washing each well twice with cold PBS, then scraping cells in the presence of 75 μL cold RIPA with protease and phosphatase inhibitors. Lysates were clarified by centrifugation at 12,000×g for 15 min at 4° C. and supernatants transferred to clean tubes. A BCA assay was performed to determine the protein concentration of each lysate. […] Protein was transferred to a nitrocellulose membrane and blocked with LI-COR blocking buffer for 1 hour. Membranes were incubated overnight in primary antibody at 4° C. Following 3 washes with TBS-T, membranes were incubated for 60 minutes in LI-COR secondary antibodies. Following 3 washes in TBS-T, and one TBS wash, membranes were scanned using a LI-COR OdysseyCLx. Image studio was used for image analysis.

Data set [4] deals with T1, human OATP1B3 (Homo sapiens, UniProt Q9NPD5).
T1 construct: expressed in transfected cells; host or cells: HEK293
T1 sequence (Q9NPD5 1-702): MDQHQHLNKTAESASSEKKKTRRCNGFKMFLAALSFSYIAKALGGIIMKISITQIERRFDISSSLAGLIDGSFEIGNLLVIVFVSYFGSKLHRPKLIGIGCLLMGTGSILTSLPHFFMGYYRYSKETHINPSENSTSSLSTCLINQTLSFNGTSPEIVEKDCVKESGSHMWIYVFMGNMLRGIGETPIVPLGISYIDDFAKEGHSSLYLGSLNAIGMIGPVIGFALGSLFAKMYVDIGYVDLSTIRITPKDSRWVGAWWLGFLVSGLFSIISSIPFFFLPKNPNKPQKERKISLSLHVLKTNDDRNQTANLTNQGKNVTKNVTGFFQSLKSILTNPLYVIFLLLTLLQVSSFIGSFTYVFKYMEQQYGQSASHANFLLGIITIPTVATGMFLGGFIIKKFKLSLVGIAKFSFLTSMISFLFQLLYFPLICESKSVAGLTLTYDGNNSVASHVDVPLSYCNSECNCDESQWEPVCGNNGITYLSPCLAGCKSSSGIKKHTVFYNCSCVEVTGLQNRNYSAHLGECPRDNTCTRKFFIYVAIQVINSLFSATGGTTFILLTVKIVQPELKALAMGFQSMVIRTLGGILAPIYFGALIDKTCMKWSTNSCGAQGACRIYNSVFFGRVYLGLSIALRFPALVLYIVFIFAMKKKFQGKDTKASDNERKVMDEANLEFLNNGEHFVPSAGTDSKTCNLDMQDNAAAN
Kind of data set: SLC transporter inhibition in HEK293 cells. The format is in vitro ADME.

The subject of data set [5] is CYP1A2 transcription. Kind of data set: CYP induction (transcription). The format is in vitro ADME. To be noted: up to 3 μM, 24 hours.
Data set [6] concerns CCNE1, CCNE2, DNA damage markers in H526 cells. Kind of data set: Western blot cell cycle and DNA damage proteins. The format is cell-based, human. As to conditions: 24 hours. On the procedure:
(§1) The H69 and H526 human lung carcinoma cell lines were grown in RPMI-1640/1× Glutamax/10% fetal bovine serum while the Hs68 Normal foreskin fibroblast cell line was grown in DMEM-high glucose/1× Glutamax/10% fetal bovine serum. […] Cells were collected by washing each well twice with cold PBS, then scraping cells in the presence of 150 μL cold RIPA with protease and phosphatase inhibitors. Lysates were clarified by centrifugation at 14,000×g for 10 min at 4° C. and supernatants transferred to clean tubes. A BCA assay was performed to determine the protein concentration of each lysate. A total of 30 μg of protein was mixed with sample buffer and reducing agent before being run on a 4-12% SDS-PAGE. Protein was transferred to a nitrocellulose membrane and blocked with LI-COR blocking buffer for 1 hour. Membranes were incubated overnight in primary antibody at 4° C. Following 3 washes with TBS-T, membranes were incubated for 45 minutes in LI-COR secondary antibodies. Following 2 washes in TBS-T, and one TBS wash, membranes were scanned using a LI-COR OdysseyCLx. Image studio was used for image analysis.
(In general: Immunoblotting shows a protein as a band on a membrane.)

Data set [7] has as its system CCNE1, CCNE2, DNA damage markers in H69 cells. Kind of data set: Western blot cell cycle and DNA damage proteins. It is filed as cell-based, human. As to conditions: 24 hours. The procedure: as §1
Data set [8] has as its target T2, hERG current (Homo sapiens, UniProt Q12809).
T2 construct: expressed in transfected cells; host or cells: HEK293 (stably transfected)
Description: hERG whole-cell patch clamp in HEK293 cells. The format is cell-based. To be noted: 37±1° C.; read-out: hERG current amplitude IC50. The procedure:
Experiments were performed at 37±1° C. Currents were measured using the whole-cell patch clamp method. Glass pipettes were pulled from borosilicate glass by a horizontal puller (Sutter Instruments, USA). Bath temperature was measured by a thermistor placed near the cell under study and were maintained by a thermoelectric device. An Axopatch 1-D amplifier of voltage clamp pulses and data acquisition was controlled by a computer running pClamp software (v10.7). The voltage protocol comprised: −80 mV for 100 ms, +40 mV for 500 ms, a −60 ms decreased slope of 1.2 V/see, then −80 mV for 3 s. Current was measured as outward current during ramp, with a pacing rate of 0.2 Hz (every 5 s), filtered at 2 kHz and digitized at 5 kHz. This protocol was repeated every 5 s until hERG tail current maintains stability, defined as approximately <10% change in current amplitude for at least 6 consecutive traces. Then the Compound I was applied as the protocol continues. Current was measured as the peak current during the ramp. […] Values were derived using the average of 3 current traces.

Read-outs that look alike come from different tables or passages of the source.

T2 sequence (Q12809 whole entry): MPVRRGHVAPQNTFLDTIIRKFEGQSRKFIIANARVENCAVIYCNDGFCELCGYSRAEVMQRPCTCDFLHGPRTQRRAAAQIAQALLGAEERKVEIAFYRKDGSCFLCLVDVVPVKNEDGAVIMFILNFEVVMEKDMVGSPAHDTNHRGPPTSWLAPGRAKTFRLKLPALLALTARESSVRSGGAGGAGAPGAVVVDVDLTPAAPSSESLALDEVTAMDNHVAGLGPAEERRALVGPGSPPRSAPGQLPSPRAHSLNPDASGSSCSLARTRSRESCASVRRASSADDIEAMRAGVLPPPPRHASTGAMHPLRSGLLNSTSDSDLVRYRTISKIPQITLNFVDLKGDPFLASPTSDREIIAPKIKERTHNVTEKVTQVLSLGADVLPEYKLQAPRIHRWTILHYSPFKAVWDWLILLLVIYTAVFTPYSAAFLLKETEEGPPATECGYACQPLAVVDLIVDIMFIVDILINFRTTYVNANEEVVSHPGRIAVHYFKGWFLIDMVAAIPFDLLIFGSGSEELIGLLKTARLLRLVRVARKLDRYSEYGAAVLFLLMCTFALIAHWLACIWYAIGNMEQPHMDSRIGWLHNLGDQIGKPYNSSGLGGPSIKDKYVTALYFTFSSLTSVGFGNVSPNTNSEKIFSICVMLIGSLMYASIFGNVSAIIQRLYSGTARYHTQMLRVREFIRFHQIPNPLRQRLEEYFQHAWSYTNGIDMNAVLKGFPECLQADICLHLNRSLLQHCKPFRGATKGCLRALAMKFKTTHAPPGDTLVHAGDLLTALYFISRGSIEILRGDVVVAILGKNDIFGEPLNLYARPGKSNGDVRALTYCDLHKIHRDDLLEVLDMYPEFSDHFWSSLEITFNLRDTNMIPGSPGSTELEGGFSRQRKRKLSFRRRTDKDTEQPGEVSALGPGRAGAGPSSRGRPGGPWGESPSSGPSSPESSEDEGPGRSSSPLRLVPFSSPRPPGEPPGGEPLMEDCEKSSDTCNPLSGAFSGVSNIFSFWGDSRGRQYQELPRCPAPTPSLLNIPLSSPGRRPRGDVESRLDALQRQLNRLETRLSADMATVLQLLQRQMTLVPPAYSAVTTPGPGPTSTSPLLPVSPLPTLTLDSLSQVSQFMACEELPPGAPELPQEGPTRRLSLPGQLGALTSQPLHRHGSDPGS

In the case of `NS(=O)(=O)c1ccc(Nc2ncc3cc4n(c3n2)C2(CCCCC2)C(=O)NN4)cc1` [Compound I], the “induction of CYP2B6 transcription” value in data set [1] is given as “no observed induction”. The pRb levels result in data set [2] is reported as “dose-dependent response decrease in pRb levels”; in data set [3], “dose-dependent decrease in pRb levels”. The “Maximum Percent inhibition” value in data set [4] (OATP1B3, HEK293 cells) was determined as 91%. Further, the half-inhibitory concentration (IC50) (in general, the concentration needed to halve the response being measured) in data set [4] (OATP1B3, HEK293 cells, read-out: IC50) came to 6.22 µM; in data set [4] (read-out: OATP1B3 IC50), 6.22 µM; in data set [8], 8.6 µM. Moreover, the “induction of CYP1A2 transcription” value in data set [5] is listed as “no observed induction”. The DNA damage markers entry in data set [6] and in data set [7] was “No overt DNA damage marker changes” throughout. In addition, the “cyclin E (CCNE1, CCNE2) levels” value in data set [6] is recorded as “increase of cyclin E (CCNE1, CCNE2) amplification”; in data set [7], “increase of cyclin E (CCNE1, CCNE2) amplification”.
